Measured values reported in EP4707280A1, “1,4-CINEOLE DERIVATIVE AND INTERMEDIATE THEREOF, HERBICIDE CONTAINING SAID DERIVATIVE AS ACTIVE INGREDIENT, METHOD FOR USING HERBICIDE, AND METHOD FOR PREPARING AGROCHEMICAL COMPOSITION” (HOKKO CHEMICAL INDUSTRY CO., LTD., priority 2023, dated 2024).

Legend:
Type in all cases: in vivo
[1] = test system: Echinochloa crus-galli var. formosensis; assay: Test Example 6: herbicidal effect test by application during growth period of paddy rice (low dose); settings: Echinochloa crus-galli; 7.5 g per 10 ares; applied seven days after sowing, flooded pots; 14 days after application; read-out: weed inhibition rate
Description: (§1) The present test was conducted in duplicate for each chemical concentration group, and the weed inhibition rate (%) was determined 14 days after chemical application using the following formula (Math. 1). [formula]
(§2) Wagner pots with an area of […] were filled with paddy soil, followed by addition of water and incorporation of chemical fertilizer (N:P:K = 16:16:16), after which puddling was performed. After that, seeds of Echinochloa crus-galli var. formosensis, broad-leaved weeds (Monochoria vaginalis), and Scirpus juncoides were sown at a depth of 0 cm to 1 cm, 30 seeds each. Immediately after sowing, the pots were flooded and a water depth of approximately 3 cm was maintained. Subsequent management was conducted in a glass greenhouse. Seven days after sowing, an emulsifiable concentrate prepared according to Formulation Example 5 using the compound shown below was diluted with water, and a specified amount of the diluted solution was applied by dropper. The amount of the active ingredient to be applied was equivalent to 7.5 g per 10 ares. The test was conducted in duplicate for each chemical concentration group, and the herbicidal effect was evaluated 14 days after chemical application using the same criteria as in Test Example 1.

[2] = test system: Echinochloa crus-galli var. formosensis; assay: Test Example 1: herbicidal effect test by soil application in paddy rice; settings: Echinochloa crus-galli, soil, 336 h; 120 g active ingredient per 10 ares; applied immediately after sowing, flooded pots; 14 days after application; read-out: weed inhibition rate
Method in brief: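 Weeds sown 0–1 cm deep (30 seeds each) into fertilized, puddled paddy soil in Wagner pots. Pots are flooded immediately, water held near 3 cm, and the diluted emulsifiable concentrate is dripped in at once, delivering 120 g active ingredient per 10 ares under glass-greenhouse management.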

[3] = test system: Echinochloa crus-galli var. formosensis; assay: Test Example 2: herbicidal effect test by application during growth period of paddy rice; settings: Echinochloa crus-galli; 120 g per 10 ares; applied seven days after sowing, flooded pots; 14 days after application; read-out: weed inhibition rate
Method in brief: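 Herbicidal effect was scored 14 days after treatment, in duplicate per concentration. Weeds sown 0–1 cm deep in puddled, fertilized paddy soil under about 3 cm of standing water received a water-diluted emulsifiable concentrate by dropper 7 days post-sowing, at 120 g a.i. per 10 ares.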

[4] = test system: Echinochloa crus-galli var. formosensis; assay: Test Example 5: herbicidal effect test by soil application in paddy rice (low dose); settings: Echinochloa crus-galli, soil, 336 h; 7.5 g per 10 ares; applied immediately after sowing, flooded pots; 14 days after application; read-out: weed inhibition rate
Description: as §1
as §2, with “Immediately thereafter,” for “Seven days after sowing,”, “The test was conducted in duplicate for each chemical concentration group, and the herbicidal effect was evaluated 14 days after chemical application using the same criteria as in Test Example 1.” left out

Echinochloa crus-galli [5] = assay: Test Example 4: herbicidal effect test by stem and leaf treatment in upland field; settings: Echinochloa crus-galli; 120 g per 10 ares; sprayed seven days after sowing, upland soil; 14 days after application; read-out: weed inhibition rate
Digitaria ciliaris [6] = assay: Test Example 3: herbicidal effect test by soil application in upland field; settings: Digitaria ciliaris, 120 g per 10 ares, sprayed one day after sowing, 14 days after application, read-out: weed inhibition rate
Method in brief: (§3)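 Pre-emergence test: seeds mixed into top 1 cm of alluvial loam upland soil in pots; emulsifiable concentrate diluted in water sprayed on soil one day after sowing at 100 L/10 a, 120 g a.i./10 a. Weed inhibition rate (%) scored at 14 days, in duplicate.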

Echinochloa crus-galli [7] = assay: as above; settings: Echinochloa crus-galli, 120 g per 10 ares, sprayed one day after sowing, 14 days after application, read-out: weed inhibition rate
Method in brief: as §3

Digitaria ciliaris [8] = assay: Test Example 4: herbicidal effect test by stem and leaf treatment in upland field; settings: Digitaria ciliaris; 120 g per 10 ares; sprayed seven days after sowing, upland soil; 14 days after application; read-out: weed inhibition rate

CC(C)[C@]12C[C@@H](OCc3cccc4ccccc34)[C@](C)(C[C@@H]1Br)O2 [1-715, (1S,2R,4R,5S)-5-bromo-1-methyl-2-(naphthalen-1-ylmethoxy)-4-isopropyl-7-oxabicyclo[2.2.1]heptane]
≥ 80%: inhibition at 75 g/ha [1] | pest or weed control at 1200 g/ha [2] | inhibition at 1200 g/ha [3] | inhibition at 75 g/ha [4]

Cc1cccc(C)c1COC1CC2(C(C)C)OC1(C)CC2Br (stereo not drawn) [1-1599, 5-bromo-2-[(2,6-dimethylphenyl)methoxy]-1-methyl-4-isopropyl-7-oxabicyclo[2.2.1]heptane]
≥ 80%: inhibition at 1200 g/ha (Echinochloa crus-galli [5]) | inhibition at 1200 g/ha (Digitaria ciliaris [6]) | inhibition at 1200 g/ha (Echinochloa crus-galli [7]) | inhibition at 1200 g/ha (Digitaria ciliaris [8]) | pest or weed control at 1200 g/ha [2] | inhibition at 1200 g/ha [3]

COc1cccc(COC2CC3(C(C)C)OC2(C)CC3Br)c1 (stereo not drawn) [1-1350, 5-bromo-2-[(3-methoxyphenyl)methoxy]-1-methyl-4-isopropyl-7-oxabicyclo[2.2.1]heptane]
≥ 80%: inhibition at 1200 g/ha (Echinochloa crus-galli [5]) | inhibition at 1200 g/ha (Digitaria ciliaris [6]) | inhibition at 1200 g/ha (Echinochloa crus-galli [7]) | inhibition at 1200 g/ha (Digitaria ciliaris [8]) | pest or weed control at 1200 g/ha [2] | inhibition at 1200 g/ha [3]

CC(C)C12CC(OCc3ccccc3I)C(C)(CC1Br)O2 (stereo not drawn) [1-1364, 5-bromo-2-[(2-iodophenyl)methoxy]-1-methyl-4-isopropyl-7-oxabicyclo[2.2.1]heptane]
≥ 80%: inhibition at 1200 g/ha (Echinochloa crus-galli [5]) | inhibition at 1200 g/ha (Digitaria ciliaris [6]) | inhibition at 1200 g/ha (Echinochloa crus-galli [7]) | inhibition at 1200 g/ha (Digitaria ciliaris [8]) | pest or weed control at 1200 g/ha [2] | inhibition at 1200 g/ha [3]

CC(C)C12CC(OCc3cccc(Br)c3)C(C)(CC1Br)O2 (stereo not drawn) [1-1362, 5-bromo-2-[(3-bromophenyl)methoxy]-1-methyl-4-isopropyl-7-oxabicyclo[2.2.1]heptane]
≥ 80%: inhibition at 1200 g/ha (Echinochloa crus-galli [5]) | inhibition at 1200 g/ha (Digitaria ciliaris [6]) | inhibition at 1200 g/ha (Echinochloa crus-galli [7]) | inhibition at 1200 g/ha (Digitaria ciliaris [8]) | pest or weed control at 1200 g/ha [2] | inhibition at 1200 g/ha [3]

CC(C)[C@@]12C[C@H](OCc3c(F)cccc3Br)[C@@](C)(C[C@H]1Br)O2 [1-1609, (1R,2S,4S,5R)-5-bromo-2-[(2-bromo-6-fluorophenyl)methoxy]-1-methyl-4-isopropyl-7-oxabicyclo[2.2.1]heptane]
≥ 80%: inhibition at 1200 g/ha (Echinochloa crus-galli [5]) | inhibition at 1200 g/ha (Digitaria ciliaris [6]) | inhibition at 1200 g/ha (Echinochloa crus-galli [7]) | inhibition at 1200 g/ha (Digitaria ciliaris [8]) | pest or weed control at 1200 g/ha [2] | inhibition at 1200 g/ha [3]

CC(C)[C@]12C[C@@H](OCc3ccccc3OC(F)(F)F)[C@](C)(CC1=O)O2 [2-348, (1R,4S,5R)-1-isopropyl-4-methyl-5-((2-(trifluoromethoxy)benzyl)oxy)-7-oxabicyclo[2.2.1]heptan-2-one]
≥ 80%: inhibition at 1200 g/ha (Echinochloa crus-galli [5]) | inhibition at 1200 g/ha (Digitaria ciliaris [6]) | inhibition at 1200 g/ha (Echinochloa crus-galli [7]) | inhibition at 1200 g/ha (Digitaria ciliaris [8]) | pest or weed control at 1200 g/ha [2] | inhibition at 1200 g/ha [3]

CC(C)[C@]12C[C@@H](OCc3ccccc3F)[C@](C)(C[C@H]1C)O2 (racemic) [1-1597, (1SR,2RS,4RS,5RS)-2-[(2-fluorophenyl)methoxy]-1,5-dimethyl-4-isopropyl-7-oxabicyclo[2.2.1]heptane]
≥ 80%: inhibition at 1200 g/ha (Echinochloa crus-galli [5]) | inhibition at 1200 g/ha (Digitaria ciliaris [6]) | inhibition at 1200 g/ha (Echinochloa crus-galli [7]) | inhibition at 1200 g/ha (Digitaria ciliaris [8]) | pest or weed control at 1200 g/ha [2] | inhibition at 1200 g/ha [3]

CC(C)C12CC(OCc3ccccc3C#N)C(C)(CC1Br)O2 (stereo not drawn) [1-1370, 2-[(5-bromo-1-methyl-4-isopropyl-7-oxabicyclo[2.2.1]heptan-2-yl)oxymethyl]benzonitrile]
≥ 80%: inhibition at 1200 g/ha (Echinochloa crus-galli [5]) | inhibition at 1200 g/ha (Digitaria ciliaris [6]) | inhibition at 1200 g/ha (Echinochloa crus-galli [7]) | inhibition at 1200 g/ha (Digitaria ciliaris [8]) | pest or weed control at 1200 g/ha [2] | inhibition at 1200 g/ha [3]

COc1ccccc1CO[C@@H]1C[C@]2(C(C)C)O[C@@]1(C)CC2=O [2-7, (1R,4S,5R)-1-isopropyl-5-((2-methoxybenzyl)oxy)-4-methyl-7-oxabicyclo[2.2.1]heptan-2-one]
≥ 80%: inhibition at 1200 g/ha (Echinochloa crus-galli [5]) | inhibition at 1200 g/ha (Digitaria ciliaris [8]) | pest or weed control at 1200 g/ha [2] | inhibition at 1200 g/ha [3] | inhibition at 75 g/ha [4]

CC(C)C12CC(OCc3cccc4ccccc34)C(C)(CC1Br)O2 (stereo not drawn) [1-1383, 5-bromo-1-methyl-2-(naphthalen-1-ylmethoxy)-4-isopropyl-7-oxabicyclo[2.2.1]heptane]
≥ 80%: inhibition at 1200 g/ha (Echinochloa crus-galli [5]) | inhibition at 1200 g/ha (Digitaria ciliaris [6]) | inhibition at 1200 g/ha (Echinochloa crus-galli [7]) | inhibition at 1200 g/ha (Digitaria ciliaris [8]) | pest or weed control at 1200 g/ha [2] | inhibition at 1200 g/ha [3]

CC(C)[C@@]12C[C@H](OCc3ccccc3I)[C@@](C)(C[C@H]1Br)O2 [1-1037, (1R,2S,4S,5R)-5-bromo-2-[(2-iodophenyl)methoxy]-1-methyl-4-isopropyl-7-oxabicyclo[2.2.1]heptane]
≥ 80%: inhibition at 1200 g/ha (Echinochloa crus-galli [5]) | inhibition at 1200 g/ha (Digitaria ciliaris [6]) | inhibition at 1200 g/ha (Echinochloa crus-galli [7]) | inhibition at 1200 g/ha (Digitaria ciliaris [8]) | pest or weed control at 1200 g/ha [2] | inhibition at 1200 g/ha [3]

Cc1cccc(C)c1CO[C@H]1C[C@@]2(C(C)C)O[C@]1(C)C[C@H]2Br [1-1608, (1R,2S,4S,5R)-5-bromo-2-[(2,6-dimethylphenyl)methoxy]-1-methyl-4-isopropyl-7-oxabicyclo[2.2.1]heptane]
≥ 80%: inhibition at 1200 g/ha (Echinochloa crus-galli [5]) | inhibition at 1200 g/ha (Digitaria ciliaris [6]) | inhibition at 1200 g/ha (Echinochloa crus-galli [7]) | inhibition at 1200 g/ha (Digitaria ciliaris [8]) | pest or weed control at 1200 g/ha [2] | inhibition at 1200 g/ha [3]

CC(C)[C@@]12C[C@H](OCc3ccccc3C#N)[C@@](C)(C[C@H]1Br)O2 [1-1043, 2-[[(1R,2S,4S,5R)-5-bromo-1-methyl-4-isopropyl-7-oxabicyclo[2.2.1]heptan-2-yl]oxymethyl]benzonitrile]
≥ 80%: inhibition at 1200 g/ha (Echinochloa crus-galli [5]) | inhibition at 1200 g/ha (Digitaria ciliaris [6]) | inhibition at 1200 g/ha (Echinochloa crus-galli [7]) | inhibition at 1200 g/ha (Digitaria ciliaris [8]) | pest or weed control at 1200 g/ha [2] | inhibition at 1200 g/ha [3]

CC(C)[C@@]12C[C@H](OCc3c(F)cccc3Cl)[C@@](C)(C[C@H]1I)O2 [1-1121, (1R,2S,4S,5R)-2-[(2-chloro-6-fluorophenyl)methoxy]-5-iodo-1-methyl-4-isopropyl-7-oxabicyclo[2.2.1]heptane]
≥ 80%: inhibition at 1200 g/ha (Echinochloa crus-galli [5]) | inhibition at 1200 g/ha (Digitaria ciliaris [6]) | inhibition at 1200 g/ha (Echinochloa crus-galli [7]) | inhibition at 1200 g/ha (Digitaria ciliaris [8]) | pest or weed control at 1200 g/ha [2] | inhibition at 1200 g/ha [3]

CC(C)[C@]12C[C@@H](OCc3ccccc3F)[C@](C)(C[C@@H]1OCC(F)(F)F)O2 [1-1605, (1S,2R,4R,5S)-2-[(2-fluorophenyl)methoxy]-1-methyl-4-isopropyl-5-(2,2,2-trifluoroethoxy)-7-oxabicyclo[2.2.1]heptane]
≥ 80%: inhibition at 1200 g/ha (Echinochloa crus-galli [5]) | inhibition at 1200 g/ha (Digitaria ciliaris [6]) | inhibition at 1200 g/ha (Echinochloa crus-galli [7]) | inhibition at 1200 g/ha (Digitaria ciliaris [8]) | pest or weed control at 1200 g/ha [2] | inhibition at 1200 g/ha [3]

CC(C)C12CC(OCc3ccc(Cl)cc3)C(C)(CC1Br)O2 (stereo not drawn) [1-1360, 5-bromo-2-[(4-chlorophenyl)methoxy]-1-methyl-4-isopropyl-7-oxabicyclo[2.2.1]heptane]
≥ 80%: inhibition at 1200 g/ha (Echinochloa crus-galli [5]) | inhibition at 1200 g/ha (Digitaria ciliaris [6]) | inhibition at 1200 g/ha (Echinochloa crus-galli [7]) | inhibition at 1200 g/ha (Digitaria ciliaris [8]) | pest or weed control at 1200 g/ha [2] | inhibition at 1200 g/ha [3]
